The values below come from US9968620B2, “Methods of treating lymphoma using thienotriazolodiazepine compounds” (ONCOETHIX GmbH, priority 2014, dated 2018).

Data set [1] can be described thus: Oral exposure in the rat (pharmacokinetics). The class given is in vivo, Sprague Dawley rats. The conditions noted are these: rats, 1 mg/kg intravenous.
The subject of data set [2] is DOHH2 and SU-DHL-2 DLBCL cell lines. The data set is described as follows: miRNA profiling, Agilent Human microRNA microarray. The class given is cell-based. The conditions noted are these: 500 nM vs DMSO, 4 h or 8 h. On the procedure:
(§1) Total RNA was extracted from 2 DLBCL cell lines, the germinal center B-cell (GCB) type DOHH2 and from the activated B-cell-like (ABC)-type SU-DHL-2, following treatment with compound (1-1) (500 nM) or DMSO for 4 h or 8 h. RNA samples were labeled with cyanine-3 dye using the Agilent microRNA Complete Labeling System & Hyb Kit and hybridized to the Agilent Human microRNA microarray v.3. Raw expression values were obtained with Agilent Feature Extraction Software, log-transformed and normalized by the quantile method. Data were filtered to exclude relatively invariant features and those below the detection threshold. Limma (Linear Models for Microarray data analysis) was employed using R/Bioconductor and the filtered dataset. Baseline miRNA profiling was obtained in 22 DLBCL cell lines with the Nanostring nCounter Human v2 miRNA Expression Assay kit. Baseline gene expression profiling (GEP) was obtained in the 22 cell lines with the Illumina HumanHT-12 v4 Expression BeadChip. Selected miRNA changes were validated by real-time PCR. The miRWalk database (Dweep et al, 2011) was used to retrieve the validated miRNA targets. Gene Set Enrichment Analysis (GSEA) software was used to assess enrichment of miRNA targets in the GEP datasets.
Total RNA was extracted from 2 diffuse large B-Cell lymphoma (DLBCL) cell lines, the germinal center B-cell (GCB) type DOHH2 and activated B-cell-like (ABC)-type SU-DHL-2, following treatment with 500 nM compound (1-1) or DMSO for 4 h or 8 h. RNA samples were labeled with cyanine-3 dye using the Agilent microRNA Complete Labeling System & Hyb Kit and hybridized to the Agilent Human microRNA microarray v.3. Raw expression values were obtained with Agilent Feature Extraction Software, log-transformed and normalized by the quantile method. Data were filtered to exclude relatively invariant features and those below the detection threshold. Limma was employed using R/Bioconductor and the filtered dataset. […]

In data set [3] the test system is 22 diffuse large B-cell lymphoma (DLBCL), 4 mantle cell lymphomas, 3 multiple myelomas, 3 splenic marginal zone lymphoma and 1 prolymphocytic leukemia cell …. The data set is described as follows: Antiproliferative activity by MTT. The class given is cell-based. The conditions noted are these: 500 nM, 72 h; 88%. On the procedure:
(§2) Cell lines: 22 diffuse large B-cell lymphoma (DLBCL), 4 mantle cell lymphomas, 3 multiple myelomas, 3 splenic marginal zone lymphoma and 1 prolymphocytic leukemia. […]. Data mining was done with LIMMA, GSEA, Metacore. Synergy was assessed in cells (2-5 cell lines) exposed for 72 h to increasing doses of compound (1-1) alone or in combination with increasing doses of other agents. MTT assays were performed and Chou-Talalay combination index (CI) calculated.

The nature of data set [4]: Antiproliferative activity by MTT. The class given is cell-based. Particulars: B-cell. On the procedure: as §2
In data set [5] the test system is NFKB target genes (IRF4, TNF AIP3 and BIRC3). The data set is described as follows: PCR of NFKB target genes. The class given is cell-based.
Another data set relates to ABC cell lines. Kind of data set: Immunoblotting and immunohistochemistry. The class given is cell-based. On the technique in general: A western blot detects proteins with antibodies after separation by electrophoresis.
A further data set deals with lymphoma cell lines. The data set is described as follows: Cytotoxic activity (apoptosis) by Annexin V staining. The conditions noted are these: 500 nM, 72 h; 14%. It counts as cell-based.
For data set [6], the system named is SU-DHL-6, SU-DHL-2 cell lines. Kind of data set: Gene expression profiling (GEP), Illumina HumanHT-12. It counts as cell-based, human. The conditions noted are these: 500 nM, 1, 2, 4, 8 or 12 hours. On the procedure: Cell lines: 22 diffuse large B-cell lymphoma (DLBCL), 4 mantle cell lymphomas, 3 multiple myelomas, 3 splenic marginal zone lymphoma and 1 prolymphocytic leukemia. Antiproliferative activity of compound (1-1) (OncoEthix SA, Switzerland) was assessed by MTT and its cytotoxic activity by Annexin V staining and gene expression profiling (GEP) with Illumina HumanHT-12 Expression BeadChips. Data mining was done with LIMMA, GSEA, Metacore. Synergy was assessed in cells (2-5 cell lines) exposed for 72 h to increasing doses of compound (1-1) alone or in combination with increasing doses of other agents. MTT assays were performed and Chou-Talalay combination index (CI) calculated.
We performed GEP on 2 cell lines (SU-DHL-6, SU-DHL-2), treated with DMSO or compound (1-1) (500 nM) for 1, 2, 4, 8 or 12 hours.

The next data set has as its system IL10 and IL4 production. The data set is described as follows: IL10 and IL4 production. It counts as cell-based. The conditions noted are these: after 24 hours treatment.
The next data set deals with DLBCL cell lines. Kind of data set: GEP variations of validated miRNA target genes. It counts as cell-based, human. On the procedure: as §1
Total RNA was extracted from 2 diffuse large B-Cell lymphoma (DLBCL) cell lines, the germinal center B-cell (GCB) type DOHH2 and activated B-cell-like (ABC)-type SU-DHL-2, following treatment with 500 nM compound (1-1) or DMSO for 4 h or 8 h. RNA samples were labeled with cyanine-3 dye using the Agilent microRNA Complete Labeling System & Hyb Kit and hybridized to the Agilent Human microRNA microarray v.3. Raw expression values were obtained with Agilent Feature Extraction Software, log-transformed and normalized by the quantile method. Data were filtered to exclude relatively invariant features and those below the detection threshold. Limma was employed using R/Bioconductor and the filtered dataset. Baseline microRNA (abbreviated miRNA) profiling was obtained from 30 B-cell lymphoma cell lines, including 22 DLBCL with the Nanostring nCounter Human v2 miRNA Expression Assay kit. Baseline gene expression profiling (GEP) was obtained with the Illumina HumanHT-12 v4 Expression BeadChip. Selected miRNA changes were validated by real-time PCR. Validated miRNA targets were retrieved using the miRWalk database (Dweep et al, 2011). […] Changes in these miRNAs matched GEP variations of validated target genes (e.g., miR-92a-1-5p: CDKN1A, log 2 FC, 0.81, CDKN2A, log 2 FC, 0.81; miR-96-5p: MYC, log 2 FC, −0.57, MYD88, log 2 FC, −0.35).

The structures appear in SMILES notation. A value given as a limit tells only on which side of the number the result lay.

The term IC50 denotes the concentration that gives 50% inhibition. `Cc1sc2c(c1C)C(c1ccc(Cl)cc1)=N[C@@H](CC(=O)Nc1ccc(O)cc1)c1nnc(C)n1-2` [Compound (1-1), 2-[(6S)-4-(4-chlorophenyl)-2,3,9-trimethyl-6H-thienol[3,2-f]-[1,2,4]triazolo[4,3-a][1,4]diazepin-6-yl]-N-(4-hydroxyphenyl)acetamide dihydrate] came in with a CI/F in data set [1] of 13.4 mL/min/kg. Besides, in data set [2], the “miR-21-3p expression, log 2 FC” value was −0.37 log 2 FC; the “miR-92a-1-5p expression, log 2 FC” value was −2.01 log 2 FC; the “miR-96-5p expression, log 2 FC” value came out at 0.39 log 2 FC. Moreover, the “cell lines showing cytostatic activity” value in [3] is 29/33. In data set [4] (cell lines with lower sensitivity (8 of 22 DLBCL cell lines)), the IC50 was more than 500 nM. For the same molecule, the IC50 in [4] (sensitive cell lines (14 of 22 DLBCL cell lines)) was less than 500 nM. The “expression of NFKB target genes (IRF4, TNF AIP3 and BIRC3)” value in [5] is “downregulated”. Also, the “transcriptionally active pSTAT3” value with ABC cell lines (2 ABC cell lines) was “reduction”. Besides, the “nuclear localization of p50 (NFKB 1)” value with ABC cell lines (ABC cell lines) is on record as “reduction”. Moreover, in the data set with lymphoma cell lines, the “cell lines showing apoptosis” value was 3/22. Also, in data set [6], the “expression of MYC (GEP)” value is “most frequently downregulated gene”; the “expression of MYD88, IRAK1, TLR6, IL6, STAT3, and TNFRSF17 (NFKB, TLR and JAK/STAT pathways)” value is reported as “downregulated”; the “expression of histone genes (GEP)” value was “upregulated”. The “IL10 and IL4 production” value with IL10 and IL4 production is given as “reduced”. Further, in the data set on DLBCL cell lines, the “CDKN1A expression (miR-92a-1-5p target), log 2 FC” value turned out to be 0.81 log 2 FC; the “CDKN2A expression (miR-92a-1-5p target), log 2 FC” value was 0.81 log 2 FC; the “MYC expression (miR-96-5p target), log 2 FC” value is given as −0.57 log 2 FC; the “MYD88 expression (miR-96-5p target), log 2 FC” value was −0.35 log 2 FC.
